# “Also recorded” adds a separate entry of the source. Like-named read-outs stand apart in the source and are kept apart here.
# What was measured:
# Type in all cases: cell-based
# Smo2 sites = molecular target: T1, Smo2 sites (Mus musculus, UniProt P56726); assay: Inhibition of C3H10T1/2 differentiation (alkaline phosphatase activity) induced by compound 1 or compound 6; details: for C3H10T1/2 cell differentiation IC50 Smo1/IC50 Smo2: ratio of mean IC50 values, Smo1 stimulated by SAG 0.1 μM, Smo2 by compound 1 1 μM; for selectivity between Smo1 and Smo2 sites (in words): Smo1 stimulated by SAG, Smo2 stimulated by compound 1
# T1 construct: host or cells: C3H10T1/2
# Experimental: (§1) The C3H10T1/2 cells were seeded onto 96-well plates at a density of 5×10^3 cells per well, 24 hours before the addition of the test compounds at a concentration ranging from 10 nM to 10 μM in DMEM culture medium supplemented with 10% of fetal calf serum. The tests were carried out in quadruplicate. The plates were then incubated for 5-6 days at a temperature of 37° C. under an atmosphere of 5% CO2. The cells were then washed in cold phosphate buffer (phosphate buffered saline: PBS) and then lysed by sonication at 4° C. in 50 μl of a solution containing 0.9% of NaCl and 0.2% of Triton X-100.
# (§2) The alkaline phosphatase in the resulting lysates was then measured according to the method described by Pepinsky et al. (Pepinsky et al. 1998). After the addition of […] of reaction buffer (200 mM Tris-HCL; pH 10.5; 0.4 M of 2-amino-2-methylpropanol and 8 mM of MgCl2) and of 50 μl of substrate (4 mM of disodium p-nitrophenyl phosphate), the lysates were incubated at 37° C. for 30-60 min and then the optical density was read at a wavelength of 415 nm.
# Smo1 sites = molecular target: T2, Smo1 sites (Mus musculus, UniProt P56726); assay: Inhibition of C3H10T1/2 differentiation (alkaline phosphatase activity) induced by SAG; details: for IC50: alkaline phosphatase activity induced by SAG (0.1 μM)
# T2 construct: host or cells: C3H10T1/2
# Experimental: as §1, §2
# C3H10T1/2 cells = assay: Activation of osteogenic differentiation of C3H10T1/2 cells (alkaline phosphatase activity); details: for stimulation of osteogenesis: induction of alkaline phosphatase after 6 days
# Experimental: The pluripotent fibroblast cell line C3H10T1/2 (ATCC) was cultured under the conditions recommended by the ATCC. The stimulation of the differentiation of these cells was carried out using increasing concentrations of compounds according to the methods described by Chen et al. and Frank-Kamenetsky et al. (Chen et al. 2002; Frank-Kamenetsky et al. 2002). The activation by the compounds of general formula (I) causes differentiation of the cell line and enables the latter to express alkaline phosphatase. It was thus possible to measure the activity of the compounds via the measurement of alkaline phosphatase activity. By way of comparison, the activity of the SAG compound (Chen et al. 2002), an Smo activator, was tested under the same conditions as those used to test the compounds of general formula (I).
# as §1, §2
# [1] = tested on: C3H10T1/2 mesenchymal stem cells; assay: Modulation by IWR1 of differentiation stimulated by compound 1 or SAG
# Experimental: For the experiments in the presence of forskolin, compound 1 (1 μM) and SAG (0.3 μM) were used to stimulate differentiation in the presence of increasing concentrations (1, 3 and 10 μM) of forskolin (Sigma). The IWR1 compound (Sigma), for its part, was used at 10 μM on an activation by compound 1 at 1 μM or SAG at 0.1 μM. The alkaline phosphatase activity was measured as previously.
# [2] = C3H 10T1/2, antagonist at 10 μM, induced by compound 1 (1 μM), C3H10T1/2 cells, read-out: Smo2 Inhibition 10 μM
# [3] = alkaline phosphatase activity induced by compound 1 (1 μM), mean ± SEM of 2 to 6 experiments, read-out: IC50 μM, C3H10T1/2, Compound 1
# [4] = alkaline phosphatase activity induced by compound 6 (3 μM), mean ± SEM of 2 to 6 experiments, read-out: IC50 μM, C3H10T1/2, Compound 6
# [5] = C3H 10T1/2, antagonist at 10 μM, induced by SAG (0.1 μM), C3H10T1/2 cells, read-out: Smo1 Inhibition 10 μM
# [6] = antagonist at 10 μM, induced by compound 1 (1 μM), C3H10T1/2 cells
# [7] = alkaline phosphatase activity induced by compound 1 (1 μM), C3H10T1/2 cells, read-out: Smo2 IC50
# T2 sequence (P56726 33-793): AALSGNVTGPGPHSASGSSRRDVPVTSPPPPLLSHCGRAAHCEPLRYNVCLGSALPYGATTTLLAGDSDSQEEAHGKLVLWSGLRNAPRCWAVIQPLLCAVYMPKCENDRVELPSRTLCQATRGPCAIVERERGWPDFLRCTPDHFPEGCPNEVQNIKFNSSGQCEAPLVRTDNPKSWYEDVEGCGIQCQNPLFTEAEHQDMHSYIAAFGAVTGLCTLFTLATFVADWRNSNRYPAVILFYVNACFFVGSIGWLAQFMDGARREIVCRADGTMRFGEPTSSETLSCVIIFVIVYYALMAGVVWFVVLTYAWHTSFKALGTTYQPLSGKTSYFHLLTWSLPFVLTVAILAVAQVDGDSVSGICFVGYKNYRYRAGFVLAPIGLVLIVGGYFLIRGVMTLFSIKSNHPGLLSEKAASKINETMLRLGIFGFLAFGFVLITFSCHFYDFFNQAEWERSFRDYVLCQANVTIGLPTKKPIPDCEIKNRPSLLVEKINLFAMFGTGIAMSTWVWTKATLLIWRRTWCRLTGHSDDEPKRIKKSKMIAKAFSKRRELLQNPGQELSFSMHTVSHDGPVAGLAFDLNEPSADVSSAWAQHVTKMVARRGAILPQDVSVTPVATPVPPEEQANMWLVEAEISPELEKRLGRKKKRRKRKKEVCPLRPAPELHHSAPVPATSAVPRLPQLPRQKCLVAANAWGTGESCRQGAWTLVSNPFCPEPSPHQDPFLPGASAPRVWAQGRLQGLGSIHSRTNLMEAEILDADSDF
# T1 sequence (P56726 33-793): as above
compound,measurement,setting,value
COc1cc(C(=O)NC(=S)Nc2ccc(C)c(NC(=O)c3ccc(-c4ccccc4)cc3)c2)cc(OC)c1OC [MRT-81],inhibition at 10 µM,Smo2 sites; [2],100%
same,IC50,Smo2 sites; [3],0.06 µM
same,IC50,Smo2 sites; [4],0.06 µM
same,times more selective with respect to Smo2 sites,Smo2 sites; compound 1 versus SAG stimulation,1.3 times
same,C3H10T1/2 cell differentiation IC50 Smo1/IC50 Smo2,Smo2 sites,0.9
same,inhibition at 10 µM,Smo1 sites; [5],100%
same,IC50,Smo1 sites; C3H10T1/2 cells,60 ± 20 nM
"CCCCCCn1c(=O)c(C(=O)Nc2ccc(C(=O)OC(C)(C)C)cc2)c(O)c2ccccc21 [compound 6, tert-butyl 4-(1-hexyl-4-hydroxy-2-oxo-1,2-dihydroquinoline-3-carboxamido)benzoate]",stimulation of osteogenesis,C3H10T1/2 cells,have the capacity to stimulate osteogenesis
"CCCCCCn1c(=O)c(C(=O)Nc2ccc(C(=O)OCCC)cc2)c(O)c2ccccc21 [compound 1, propyl 4-(1-hexyl-4-hydroxy-2-oxo-1,2-dihydroquinoline-3-carboxamido)benzoate]",maximum stimulation compared with SAG,C3H10T1/2 cells; dose-response curves produced in parallel,greater than that of the Smo agonist SAG
same,stimulation of osteogenesis,C3H10T1/2 cells,have the capacity to stimulate osteogenesis
O=C(Nc1cccc2cccnc12)c1ccc(N2C(=O)[C@@H]3[C@H](C2=O)[C@@H]2C=C[C@H]3C2)cc1 [IWR1],effect on the activity of SAG,"[1]; IWR1 10 μM, SAG at 0.1 μM",does not modify; also recorded: does not affect
same,effect on the activity of compound 1 (in words),"[1]; IWR1 10 μM, compound 1 at 1 μM",inhibits the activity of compound 1
same,reduction of the activity of compound 1,"[1]; IWR1 10 μM, compound 1 at 1 μM",60%
same,IC50,"[1]; dose-response curve of compound 1 with IWR1, read-out: IC50 with respect to alkaline phosphatase inhibition",2500 nM
COc1cc(C(=O)NC(=O)Nc2cccc(NC(=O)c3ccccc3)c2)cc(OC)c1OC [MRT-14],inhibition at 10 µM,Smo2 sites; [2],95%
same,selectivity between Smo1 and Smo2 sites (in words),Smo2 sites,comparable affinities
same,C3H10T1/2 cell differentiation IC50 Smo1/IC50 Smo2,Smo2 sites,2.5
same,IC50,"Smo2 sites; response induced by compound 1, read-out: affinity (IC50) for compound 1",0.32 µM
same,IC50,"Smo2 sites; response induced by compound 6, read-out: affinity (IC50) for compound 6",0.4 µM
same,inhibition at 10 µM,Smo1 sites; [5],100%
same,IC50,Smo1 sites; C3H10T1/2 cells,130 ± 50 nM
"CC1=C2C[C@H]3[C@@H](CC=C4C[C@@H](O)CC[C@@]43C)[C@@H]2CC[C@]12O[C@@H]1C[C@H](C)CN[C@H]1[C@H]2C [Cyclopamine, cyclopamine]",inhibition at 10 µM,"Smo2 sites; C3H 10T1/2, read-out: Smo2 Inhibition 10 μM",48%
same,Smo2 Inhibition 10 μM,Smo2 sites; [6],weaker inhibition
same,inhibition at 10 µM,"Smo1 sites; C3H 10T1/2, read-out: Smo1 Inhibition 10 μM",98%
same,Smo1 Inhibition 10 μM,"Smo1 sites; antagonist at 10 μM, induced by SAG (0.1 μM), C3H10T1/2 cells",complete inhibition
Cc1nn(-c2ccccc2)c(C)c1/C=N/N1CCN(Cc2ccccc2)CC1 [SANT-1],inhibition at 10 µM,Smo2 sites; [2],71%
same,selectivity between Smo1 and Smo2 sites (in words),Smo2 sites,comparable affinities
same,IC50,Smo2 sites; [7],0.06 ± 0.02 µM
same,C3H10T1/2 cell differentiation IC50 Smo1/IC50 Smo2,Smo2 sites,1.5
same,inhibition at 10 µM,Smo1 sites; [5],100%
same,IC50,Smo1 sites; C3H10T1/2 cells,40 ± 10 nM
COc1cc(C(=O)NC(=S)Nc2cccc(NC(=O)c3ccc(-c4ccc(F)cc4)cc3)c2)cc(OC)c1OC [MRT-79],selectivity between Smo1 and Smo2 sites (in words),Smo2 sites,more selective with respect to Smo2 sites than the Smo1 sites
same,C3H10T1/2 cell differentiation IC50 Smo1/IC50 Smo2,Smo2 sites,0.08
COc1cccc(CN(C(=O)CC(C)(C)C)[C@H]2C[C@@H](C(=O)N3CCNCC3)N(Cc3ccc4c(c3)OCO4)C2)c1 [Cur61414],selectivity between Smo1 and Smo2 sites (in words),Smo2 sites,much more selective with respect to Smo1 sites than Smo2 sites
same,IC50,Smo2 sites; [7],5.7 ± 1.6 µM
same,IC50,Smo2 sites; [3],5.7 ± 1.6 µM
same,IC50,Smo2 sites; [4],7 ± 1 µM
same,Smo2 Inhibition 10 μM,Smo2 sites; [6],weaker inhibition
same,C3H10T1/2 cell differentiation IC50 Smo1/IC50 Smo2,Smo2 sites,17
same,selectivity for the Smo1 site compared with the Smo2 site,Smo1 sites; SAG versus compound 1 stimulation,17 fold

# Source: patent US8957091B2, “Use of quinolinone derivatives as a research tool” (Centre National de la Recherche Scientifique, priority 2010, dated 2015)
